According to paper PMC9978856 (Acta Pharmaceutica Sinica. B, 2022):

How the values were obtained:
[1] = tested on: CES1; conditions: cited from earlier work
[2] = tested on: Ldlr KO rats; test: Lan treatment of Ldlr KO rats; type: in vivo, rat; conditions: Lan 50 mg/kg/day p.o. for 21 days
[3] = tested on: food-borne hypercholesteremia rat model; test: Lan treatment in food-borne hypercholesteremia rat model; type: in vivo
[4] = tested on: CYP1A; conditions: Lan 50 mg/kg/day for 7 days; cited from earlier work
[5] = tested on: CYP1A
[6] = CYP1A1/2 KO compared with WT group; caffeine 5 mg/kg by gavage
[7] = HCD + Lan 10 group (10 mg/kg/day, 11 weeks) vs HCD + Sol group
[8] = HCD + Lan 50 group (50 mg/kg/day, 11 weeks) vs HCD + Sol group
[9] = RLM of KO rats compared with WT rats

SMILES: C[C@@H](CO)CCC[C@@H](C)[C@H]1CC[C@H]2[C@@H]3CC=C4C[C@@H](O)CC[C@]4(C)[C@H]3CC[C@]12C [27-hydroxycholesterol]
- inhibitory effect on CES1 [1]: strong selective inhibitory effect

SMILES: Cc1c(OCC(F)(F)F)ccnc1C[S+]([O-])c1nc2ccccc2[nH]1 (centres unmarked) [Lan, Lansoprazole]
- lipids in serum, including TG, LDL-C, HDL-C, and T-C [2]: remained unchanged
- liver lipidosis (HE staining) [2]: significantly alleviated
- CYP1A protein expression in the liver ([2]; Western blot): significantly induced
- decrease of serum LDL-C content [3, 7]: 40%
- decrease of serum TG concentration [3, 7]: 27%
- increase of HDL-C/LDL-C ratio [3, 7]: 170%
- reduction of serum T-C content [3, 7]: 39%
- decrease of serum LDL-C content [3, 8]: 65%
- decrease of serum TG concentration [3, 8]: 42%
- increase of HDL-C/LDL-C ratio [3, 8]: 200%
- reduction of serum T-C content [3, 8]: 47%
- serum transaminases ([3]; HCD-fed rats, Lan treatment, 11 weeks): reduced serum transaminases to physiological levels
- lipid accumulation in liver (oil red O staining) ([3]; both 10 and 50 mg/kg Lan groups vs HCD + Sol group, 11 weeks): less than that in the HCD + Sol group
- increase of the metabolic activity of CYP1A in rats [4]: 4 times

SMILES: Cn1c(=O)c2c(ncn2C)n(C)c1=O [caffeine]
- Km of caffeine metabolism in RLM ([5]; KO versus WT rats RLM): remained unchanged
- decrease of CLint of caffeine [5, 9]: 50%
- decrease of Vmax of 3-demethylation caffeine formation [5, 9]: 38%
- increase of AUC of caffeine [6]: 200%

SMILES: CC(C)CCC[C@@H](C)[C@H]1CC[C@H]2[C@@H]3CC=C4C[C@@H](O)CC[C@]4(C)[C@H]3CC[C@]12C [cholesterol]
- inhibitory effect on CES1 [1]: no inhibitory effect
